Our source for the IC50 values is patent publication US20220388972A1, “CHROMAN-4-ONE DERIVATIVES FOR THE TREATMENT AND PROPHYLAXIS OF HEPATITIS B VIRUS INFECTION” (Hoffmann-La Roche Inc., priority 2018, published 2022).

This assay concerns HBV cccDNA (HBeAg as surrogate marker) in HepDES19 cells. In words: Engineered HepDES19 primary screen assay (HBeAg as surrogate marker for cccDNA). Type of assay: cell-based. The following applies: Hepatitis B virus, HepDES19, 120 h. From the text: The assay was employed to screen for cccDNA inhibitors. HepDES19 is a cccDNA-producing cell line. In this cell line, HBeAg in the cell culture supernatant as surrogate marker, as HBeAg production depends on cccDNA level and activity. HepDES19 is an engineered cell line which contains a 1.1 unit length HBV genome, and pgRNA transcription from the transgene is controlled by Tetracycline (Tet). In the absence of Tet, pgRNA transcription will be induced, but HBV e antigen (HBeAg) could not be produced from this pgRNA due to very short leader sequence before the HBeAg start codon and the start codon is disrupted. Only after cccDNA is formed, the missing leader sequence and start codon mutation would be restored from the 3′-terminal redundancy of pgRNA, and then HBeAg could be synthesized. Therefore, HBeAg could be used as a surrogate marker for cccDNA (Zhou, T. et al., Antiviral Res. (2006), 72 (2), 116-124; Guo, H. et al., J. Virol. (2007), 81 (22), 12472-12484).
HepDES19 cells were seeded at 2×10^6 cells per T150 flask and cultured with the culture medium (Dulbecco's Modified Eagle Medium: Nutrient Mixture F-12 [DMEM-F12, Gibco Cat. 11320-82], 10% Fetal Bovine Serum [FBS, Clontech Cat. 631101], 0.1 mM Non-Essential Amino Acids Solution [NEAA, Gibco Cat. 11140-050], 50 μg/mL Penicillin-Streptomycin [PS, Invitrogen Cat. 15140-163], 500 μg/mL Geneticin [G418, Invitrogen Cat. 10131-027]) containing 3 μg/mL Tet (Sigma, Cat. 87128) for 5 days. Cells were then seeded at 4×10^6 cells per T150 in the same culture medium as described above in the absence of Tet for 8 days. Cells were then harvested and frozen at density of 2×10^6 cells per mL. For compound testing, the frozen cells were thawed and seeded into 96-well plates at a density of 6×10^4 cells per well. At 24 hours after seeding, half log serial dilutions of compounds made with Dimethyl sulfoxide (DMSO, Sigma, Cat. D2650) were further diluted with the same culture medium as described above before they were added to the cells to reach desired final compound concentrations and 1% DMSO concentration. Plates were then incubated at 37° C. for another 5 days before measurement of HBeAg level and cell viability. Intracellular HBeAg level were measured with enzyme-linked immunosorbent assay (ELISA) kit (Shanghai Kehua Diagnostic Medical Products Co., Ltd). Cell viability was assessed using Cell Counting Kit-8 (DonJindo, Cat. CK04-20). IC50 values were derived from the dose-response curve using 4 parameters logistic curve fit method.
The compounds of the present invention were tested for their capacity to inhibit extracellular HBeAg level as described herein.
For the molecule `O=C(O)COCCCOc1cc(C(F)(F)F)ccc1C1CC(=O)c2cccc(Cl)c2O1` (stereo not drawn) [Example 23, 2-[3-[2-(8-chloro-4-oxo-chroman-2-yl)-5-(trifluoromethyl)phenoxy]propoxy]acetic Acid], the IC50 (commonly the midpoint of a concentration-inhibition curve) worked out at 1.56 µM.

As for `O=C(O)CCCOc1cc(C(F)(F)F)ccc1C1CC(=O)c2ccc(F)c(Cl)c2O1` (stereo not drawn) [Example 25, 4-[2-(8-chloro-7-fluoro-4-oxo-chroman-2-yl)-5-(trifluoromethyl)phenoxy]butanoic Acid], the IC50 was 1.18 µM.

`Cc1cc(C2CC(=O)c3cccc(Cl)c3O2)c(OCCC(=O)O)cc1Cl` (stereo not drawn) [Example 14, 3-[5-chloro-2-(8-chloro-4-oxo-chroman-2-yl)-4-methyl-phenoxy]propanoic Acid] had an IC50 of 1.05 µM. Molecule `O=C1CC(c2ccc(C(F)(F)F)cc2OC2CC(C(=O)O)C2)Oc2c(Cl)cccc21` (stereo not drawn) [Example 17, 3-[2-(8-chloro-4-oxo-chroman-2-yl)-5-(trifluoromethyl)phenoxy]cyclobutanecarboxylic Acid] came in with an IC50 of 1.56 µM. With `O=C(O)CCOc1cc(Br)ccc1[C@H]1CC(=O)c2cccc(Cl)c2O1` [Example 16-B, 3-[5-bromo-2-[(2R)-8-chloro-4-oxo-chroman-2-yl]phenoxy]propanoic Acid], half-maximal inhibition (IC50) was put at 0.48 µM. The value for `O=C1CC(c2ccc(C(F)(F)F)cc2OCCCO)Oc2c1ccc(F)c2Cl` (stereo not drawn) [Example 33, 8-chloro-7-fluoro-2-[2-(3-hydroxypropoxy)-4-(trifluoromethyl)phenyl]chroman-4-one] was 0.68 µM; that for `NS(=O)(=O)N[C@H](COc1cc(C(F)(F)F)ccc1[C@H]1CC(=O)c2cccc(Cl)c2O1)C(=O)O` [Example 30-B, (2R)-3-[2-[(2R)-8-chloro-4-oxo-chroman-2-yl]-5-(trifluoromethyl)phenoxy]-2-(sulfamoylamino)propanoic Acid] was 10.7 µM; that for `O=C(O)CCOc1cc2c(cc1C1CC(=O)c3cccc(Cl)c3O1)OCO2` (stereo not drawn) [Example 12, 3-[[6-(8-chloro-4-oxo-chroman-2-yl)-1,3-benzodioxol-5-yl]oxy]propanoic Acid] was 10.1 µM.

`O=C(O)CCOc1cc(Br)ccc1[C@@H]1CC(=O)c2cccc(Cl)c2O1` [Example 16-A, 3-[5-bromo-2-[(2S)-8-chloro-4-oxo-chroman-2-yl]phenoxy]propanoic Acid] showed an IC50 of 2.43 µM.

As for `NS(=O)(=O)N[C@H](COc1cc(C(F)(F)F)ccc1[C@@H]1CC(=O)c2cccc(Cl)c2O1)C(=O)O` [Example 30-A, (2R)-3-[2-[(2S)-8-chloro-4-oxo-chroman-2-yl]-5-(trifluoromethyl)phenoxy]-2-(sulfamoylamino)propanoic Acid], the IC50 was found to be 3.37 µM. The value for `O=C1CC(c2ccc(Br)cc2O[C@H]2C[C@@H](C(=O)O)C2)Oc2c(Cl)cccc21` (stereo partly drawn) [Example 37, cis-3-[5-bromo-2-(8-chloro-4-oxo-chroman-2-yl)phenoxy]cyclobutanecarboxylic Acid] was 0.67 µM; that for `Cc1ccc(C2CC(=O)c3cccc(Cl)c3O2)c(OCCCOCC(=O)O)c1` (stereo not drawn) [Example 22, 2-[3-[2-(8-chloro-4-oxo-chroman-2-yl)-5-methyl-phenoxy]propoxy]acetic Acid] was 1.99 µM. For `COCCCOc1cc(C(F)(F)F)ccc1C1CC(=O)c2ccc(F)c(Cl)c2O1` (stereo not drawn) [Example 32, 8-chloro-7-fluoro-2-[2-(3-methoxypropoxy)-4-(trifluoromethyl)phenyl]chroman-4-one], the IC50 stood at 1.93 µM. Consider `O=C(O)COCCCOc1cc(C(F)(F)F)ccc1C1CC(=O)c2ccc(F)c(Cl)c2O1` (stereo not drawn) [Example 24, 2-[3-[2-(8-chloro-7-fluoro-4-oxo-chroman-2-yl)-5-(trifluoromethyl)phenoxy]propoxy]acetic Acid], for which the IC50 is 7.14 µM. `COc1cc(Cl)c2c(c1)C(=O)CC(c1ccc(C(F)(F)F)cc1OCCC(=O)O)O2` (stereo not drawn) [Example 5, 3-[2-(8-chloro-6-methoxy-4-oxo-chroman-2-yl)-5-(trifluoromethyl)phenoxy]propanoic Acid] came in with an IC50 of 3.06 µM. Under `O=C(O)COc1cc(C(F)(F)F)ccc1C1CC(=O)c2ccc(F)c(Cl)c2O1` (stereo not drawn) [Example 26, 2-[2-(8-chloro-7-fluoro-4-oxo-chroman-2-yl)-5-(trifluoromethyl)phenoxy]acetic Acid] stands 2.78 µM; under `O=C(O)C(=O)NCCOc1cc(Cl)ccc1C1CC(=O)c2cccc(Cl)c2O1` (stereo not drawn) [Example 36, 2-[2-[5-chloro-2-(8-chloro-4-oxo-chroman-2-yl)phenoxy]ethylamino]-2-oxo-acetic Acid], 12.9 µM; under `O=C1CC(c2ccc(C(F)(F)F)cc2OCCOC2CC(C(=O)O)C2)Oc2c(Cl)cccc21` (stereo not drawn) [Example 20, 3-[2-[2-(8-chloro-4-oxo-chroman-2-yl)-5-(trifluoromethyl)phenoxy]ethoxy]cyclobutanecarboxylic Acid], 0.01 µM. Under `COc1cc(OCCC(=O)O)c(C2CC(=O)c3cccc(Cl)c3O2)cc1C` (stereo not drawn) [Example 9, 3-[2-(8-chloro-4-oxo-chroman-2-yl)-5-methoxy-4-methyl-phenoxy]propanoic Acid] stands 9.41 µM; under `O=C1CC(c2ccc(C(F)(F)F)cc2OCCO)Oc2c1ccc(F)c2Cl` (stereo not drawn) [Example 34, 8-chloro-7-fluoro-2-[2-(2-hydroxyethoxy)-4-(trifluoromethyl)phenyl]chroman-4-one], 3.36 µM; under `CCS(=O)(=O)N[C@H](COc1cc(C(F)(F)F)ccc1C1CC(=O)c2cccc(Cl)c2O1)C(=O)OC` (stereo partly drawn) [Example 27, Methyl (2R)-3-[2-(8-chloro-4-oxo-chroman-2-yl)-5-(trifluoromethyl)phenoxy]-2-(ethylsulfonylamino)propanoate], 0.58 µM. The value for `CCNS(=O)(=O)N[C@H](COc1cc(C(F)(F)F)ccc1[C@@H]1CC(=O)c2cccc(Cl)c2O1)C(=O)O` [Example 31-A, (2R)-3-[2-[(2S)-8-chloro-4-oxo-chroman-2-yl]-5-(trifluoromethyl)phenoxy]-2-(ethylsulfamoylamino)propanoic acid] was 3.3 µM; that for `CCNS(=O)(=O)N[C@H](COc1cc(C(F)(F)F)ccc1[C@H]1CC(=O)c2cccc(Cl)c2O1)C(=O)O` [Example 31-B, (2R)-3-[2-[(2R)-8-chloro-4-oxo-chroman-2-yl]-5-(trifluoromethyl)phenoxy]-2-(ethylsulfamoylamino)propanoic Acid] was 10.9 µM; that for `COc1ccc2c(c1Cl)OC(c1ccc(C(F)(F)F)cc1OCCC(=O)O)CC2=O` (stereo not drawn) [Example 4, 3-[2-(8-chloro-7-methoxy-4-oxo-chroman-2-yl)-5-(trifluoromethyl)phenoxy]propanoic Acid] was 5.25 µM. `Cc1cc(C2CC(=O)c3cccc(Cl)c3O2)c(OCCC(=O)O)cc1Br` (stereo not drawn) [Example 7, 3-[5-bromo-2-(8-chloro-4-oxo-chroman-2-yl)-4-methyl-phenoxy]propanoic Acid] yielded an IC50 of 9.41 µM. On to `O=C(O)CCOc1cc(C(F)(F)F)ccc1C1CC(=O)c2c(O)ccc(Cl)c2O1` (stereo not drawn) [Example 6, 3-[2-(8-chloro-5-hydroxy-4-oxo-chroman-2-yl)-5-(trifluoromethyl)phenoxy]propanoic Acid], for which half-maximal inhibition (IC50) required 5.22 µM. `COc1cc(C2CC(=O)c3cccc(Cl)c3O2)c(OCCC(=O)O)cc1Cl` (stereo not drawn) [Example 10, 3-[5-chloro-2-(8-chloro-4-oxo-chroman-2-yl)-4-methoxy-phenoxy]propanoic Acid] returned an IC50 of 11.4 µM.
